Values joined by “and” are separate entries in the source; they are usually repeats but may differ in a detail not shown here. Equal values may be shown once.
Key:
interscapular BAT [1] = assay: Top-down whole-organism NIR fluorescence screening of dyes (ROI1/ROI2 contrast); format: in vivo, nude mice; conditions: for visible contrast around the interscapular BAT area: in vivo NIR images; for Ratio AVERAGE (mean ratio ROI1/ROI2): i.v., mean of three filter pairs, hit threshold >1.10
Protocol: 38 fluorescent dyes from commercial resources and from the inventors' laboratory were screened. Dyes with excitation range of 550-745 nm, emission range of 600-840 nm, and with molecular weight of less than 700 Da (except Cy5.5) (representative dyes are listed in FIG. 1d and the full list is shown in Table 2). Their hydrophobicities were not determined. The library was screened by intravenous tail injection of compounds into nude mice (10μg/mouse). Each dye was imaged with three optimized excitation/emission filter-pairs, and images at one hour after i.v. injection were acquired.
Top-down whole organism screening was performed as follows. Nude mice (nu/nu COX7) were purchased from Massachusetts General Hospital and Balb/c mice were from Jackson Laboratory. All animal experimental procedures were approved by the Institutional Animal Care and Use Committee (IACUC) at Massachusetts General Hospital. Dye stock solutions were prepared in DMSO. The final injection solution (0.1 mg/ml) was freshly prepared in a mixed solution of 20% DMSO, 20% Cremophor EL and 60% saline. Nude mice (n=5) were injected with a 100 μL dye solution via tail vein. For each imaging session, mice were anesthetized with a mixture of oxygen and isoflurane for 5 minutes, and then positioned into the imaging chamber of IVIS® Spectrum in vivo pre-clinical imaging system. Images were acquired at one-hour post-injection using sequence imaging with three excitation/emission filter pairs for each dye.
Hits selection was performed as follows. Hits from cell- or protein-based screening are usually selected by setting certain threshold. In the case of the top-down imaging screening, two methods were used (threshold and visible contrast) to select hits. First, three images obtained with three excitation/emission pairs were selected for each dye. These ex/em pairs were selected from the closest excitation and emission wavelengths of the tested dyes. For instance, 605/660 nm, 605/680 nm, 640/680 nm were selected for image acquisition of Nile blue (625/660 nm). The quantification of contrast for each image was calculated as a ratio of two ROIs (region of interest). ROI1 reflected the average signal from interscapular BAT and ROI2 was the average signal of the area that included BAT and white adipose tissue (WAT) around the interscapular site (FIG. 1b, left). The averaged fluorescent signal of ROI was used instead of the total signal, because the total signal depends on the area of ROI, whereas the averaged signal reflects the density of signal. The ratio of ROI1/ROI2 could reflect the signal/noise ratio of the tested probe, and could also reflect the selectivity of the probe for BAT over WAT. For each dye, three ROI1/ROI2 ratios obtained with the three filter pairs were calculated. The mean of the ratios was used as the threshold. If the mean ratio was >1.10, the dye was selected as a potential positive hit (FIG. 1c). Since the contrast of a dye in the top-down screening is in the visible range, the visible contrast around the interscapular BAT area was also tested for the hits with the mean ratio of >1.10. If both mean ratio and the visible contrast were positive, then the hit was subjected to re-testing procedure to validate its reliability as described below.
Although CRANAD-2 and CRANAD-3 were able to provide certain contrast for BAT in vivo, their excitation and emission wavelengths were still shorter than required for an ideal NIR imaging probe (both excitation and emission >640 nm). […] To seek better probes, a sub-library was synthesized based on the structures of the lead probes CRANAD-2 and -3. CRANAD-6, -19, -22, -24, -26, -32 and -43 were synthesized and tested (images and chemical structures, excitation and emission spectra are shown in FIG. 9 a-e). […] However, the ROI1/ROI2 ratio of CRANAD-22 was not improved (FIG. 9c).

interscapular BAT [2] = assay: Re-testing of hits with stepwise dissection and NIR imaging; format: in vivo, mice
Protocol: Like protein/cell-based screening, hit re-testing experiments were conducted to validate the reliability of this approach. CRANAD-2, -3, LDS 722 and Rhodamine 640 were subjected to re-testing by repeating the above imaging procedure. Images were acquired one hour after probe injection.
Next, stepwise dissection and imaging were performed to track the source of the fluorescence contrast at the interscapular site. Skin and the thin WAT layer that covers BAT were first removed, and then BAT was dissected, and NIR images were captured at each step. […] The signal contribution from BAT (R(BAT)) was roughly estimated using the ratio of fluorescence signals acquired after (F(BAT)) and before (F(intact)) the first step dissection of skin and WAT.

[3] = tested on: differentiated 3T3-L1 cells; assay: Probe uptake in differentiated 3T3-L1 cells (IVIS and two-photon imaging, competition); format: cell-based; conditions: for uptake with triglyceride competition: triglyceride added with probe, two-photon microscopy and IVIS
Protocol: (§1) To investigate the facilitated diffusion of CRANAD-2, the time courses of CRANAD-2 uptake in 3T3-L1 cells were compared before and after differentiation. Two-photon imaging for 3T3-L1 cells was performed as follows. Fibroblast 3T3-L1 cells were differentiated following the protocol provided by Zenbio, Inc. (protocol No. ZBM0009.02). Ten microliters of CRANAD-2 (250 μM in DMSO) was added to the differentiated cells (1.0 ml). Cells were imaged after 10 min of incubation. A 940 nm laser was first used to capture an image for CRANAD-2 in 570-620 nm channel (Prairie Two-photon microscope, Middleton, Wis.). Next, the laser was tuned to 750 nm to capture autofluorescence of the cells to outline cell morphology.
For triglyceride competition, stock solutions of CRANAD-2 (250 μM) and triglyceride (5 mM) in DMSO were prepared. Before imaging, 10 μl of the stock solution was added to the cells.
(§2) IVIS imaging of 3T3-L1 cells with CRANAD-2 was performed as follows. To a 6-well plate seeded with preadipocytes or differentiated adipocytes, a 10 μL solution of CRANAD-2 (250 μM in DMSO) was added. The plate was subjected to imaging using IVIS imaging system with Ex=605 nm, Em=660 nm before and after addition of CRANAD-2. For triglyceride competition, the same protocol for two-photon imaging was used. The images were acquired at 20 min after addition of CRANAD-2. Studies were performed in triplicate.
(§3) The uptake of CRANAD-29 in 3T3-L1 cells before and after differentiation was compared. IVIS imaging of 3T3-L1 cells with CRANAD-29 was performed as follows. To a 6-well plate seeded with preadipocytes or differentiated adipocytes, a 10 μL solution of CRANAD-29 (250 μM in DMSO) was added. The plate was subjected to imaging using IVIS imaging system with Ex=640 nm, Em=700 nm before and after addition of CRANAD-29. For triglyceride competition and Hexarelin inhibition, the similar protocol for CRANAD-2 imaging was used. The final concentration of hexarelin was 12.5 μM, and the images were acquired at 3 hours after addition of CRANAD-29 and triglyceride/Hexarelin. Studies were performed in triplicate.

[4] = tested on: undifferentiated 3T3-L1 cells; assay: Probe uptake in undifferentiated 3T3-L1 cells (IVIS imaging); format: cell-based
Protocol: as §1, §2, §3

[5] = nude mice, one hour post-injection

CN(C)c1ccc(/C=C/C2=CC(=C/C=C3C=CC(=[N+](C)C)C=C3)/O[B-](F)(F)O2)cc1 [CRANAD-2]
visible contrast around the interscapular BAT area (interscapular BAT [1]): best contrast and clear triangular contour | Ratio No 1 (ROI1/ROI2 average fluorescence intensity) (interscapular BAT [1]; nude mice, 10 μg/mouse i.v., one hour post-injection, first excitation/emission filter pair): 1.31E+00 | Ratio No 2 (ROI1/ROI2 average fluorescence intensity) (interscapular BAT [1]; nude mice, 10 μg/mouse i.v., one hour post-injection, second excitation/emission filter pair): 1.26E+00 | Ratio No 3 (ROI1/ROI2 average fluorescence intensity) (interscapular BAT [1]; nude mice, 10 μg/mouse i.v., one hour post-injection, third excitation/emission filter pair): 1.26E+00 | Ratio AVERAGE (mean ratio ROI1/ROI2) (interscapular BAT [1]; [5]): 1.28 and 1.28E+00 | R(BAT), signal contribution from BAT, F(BAT)/F(intact) (interscapular BAT [2]; fluorescence after vs before dissection of skin and WAT, roughly estimated): about 0.26 | contrast among the re-tested dyes (interscapular BAT [2]; images one hour after probe injection): highest contrast | fluorescence signal from BAT (before vs after BAT removal) (interscapular BAT [2]; stepwise dissection): able to label BAT | selectivity for BAT (over WAT) (interscapular BAT [2]; stepwise dissection): low | time to uptake plateau ([3]; differentiated 3T3-L1 cells): 15 min | uptake within 1 minute, of the maximal ([3]; differentiated 3T3-L1 cells): 62% | uptake with triglyceride competition [3]: significant decrease in uptake | time to maximal uptake [4]: ≤ 1 min

F[B-]1(F)OC(/C=C/c2cc3c4c(c2)CCCN4CCC3)=CC(/C=C/c2cc3c4c(c2)CCCN4CCC3)=[O+]1 [CRANAD-29]
visible contrast around the interscapular BAT area (interscapular BAT [1]): excellent contrast and a very clear contour of BAT | Ratio AVERAGE (mean ratio ROI1/ROI2) (interscapular BAT [1]; [5]): 1.36 | F(BAT)/F(intact) ratio compared with CRANAD-2 and -3 (interscapular BAT [2]; stepwise dissection): much higher | selectivity for BAT (over WAT) (interscapular BAT [2]; stepwise dissection): excellent selectivity | time to uptake plateau ([3]; differentiated 3T3-L1 cells): around 90 minute | reduction of uptake in glutaraldehyde-fixed cells ([3]; differentiated 3T3-L1 cells fixed with glutaraldehyde): 70% | uptake with Hexarelin (CD36 specific ligand) ([3]; hexarelin 12.5 μM, images at 3 hours): significantly inhibited by Hexarelin | uptake with triglyceride competition [3]: significantly reduced by triglyceride | uptake in undifferentiated cells over the time course [4]: no apparent uptake

Reference: patent publication US9757477B2, “Imaging brown adipose tissue with curcumin derivatives” (The General Hospital Corporation, priority 2013, dated 2017)
